Laboratory results from patent publication US12133855B2, “Lipid-like nanocomplexes and uses thereof” (Trustees of Tufts College, priority 2018, dated 2024).

How the values were obtained:
Assay type in all cases: cell-based
HeLa cells [1] = assay: Internalization of Nile red loaded nanoparticles (NR+ cells); conditions: 8 h of exposure
Description: The internalization kinetics and efficiencies of OCholB LNPs were then studied using NR loaded LNPs and HeLa cells. […] Next, all of the NR delivery efficiencies of eight OCholB LNPs were determined after 8 h of exposure. […] Representative fluorescent images of NR/LNPs (NR/75-OCholB, NR/76-OCholB and NR/77-OCholB) treated HeLa cells are shown in FIG. 12D, from which it is easily observed that NR was delivered into the cells and mainly distributed in cytoplasm, by OCholB LNPs. Next, the internalization of negatively charged hydrophilic fluorescent dye, calcein, was studied. […] Next, the use of OCholB LNPs for the intracellular delivery of macromolecular cargo was explored, using fluorescent recombinant (−30)GFP-Cre protein and HeLa-DsRed cells as the model system. […] Delivery efficiency was tested at a range of (−30)GFP-Cre protein concentrations (25, 50 and 100 nM), with a consistent lipid/protein ratio (i.e., delivery with the final lipid concentration of 1.7, 3.3, and 6.6 μg mL^−1 respectively). 33.2%, 43.8% and 74% of GFP positive (GFP^+) cells were recorded for (−30)GFP-Cre/Lpf2k treated cells with the concentration of (−30)GFP-Cre 25 nM, 50 nM and 100 nM, respectively. […] The typical flow cytometry profiles of naked (−30)GFP-Cre protein and (−30)GFP-Cre loaded nanoparticles ((−30)GFP-Cre/75-OCholB, (−30)GFP-Cre/76-OCholB, (−30)GFP-Cre/77-OCholB and (−30)GFP-Cre/Lpf2k) treated HeLa-DsRed cells were shown in and FIG. 12H ([lipidoid]=6.6 μg mL^−1 and [(−30)GFP-Cre]=100 nM), which is consistent with the statistical results shown in FIG. 12G. Furthermore, the representative fluorescent images from the protein and protein/nanoparticle treated HeLa-DsRed cells are also shown in FIG. 12I.

HeLa-DsRed cells = assay: Genome editing efficiency of (−30)GFP-Cre/OCholB LNPs (DsRed+ cells); conditions: for DsRed^+ cells: 8 h exposure, 24 h incubation
Excerpt: In this context, the internalization mechanism of the (−30)GFP-Cre/LNPs complexes was studied at first, by introducing different endocytosis inhibitors, i.e., sucrose (clathrin-mediated endocytosis inhibitor), methyl-β-cyclodextrin (M-β-CD, cholesterol-depleting agent), dynasore (dynamin II inhibitor) and nystatin (caveolin-mediated endocytosis inhibitor), following our previously reported procedures. […] Comparing to other combinatorial library studies, it is clear that even loaded with same cargoes and tested against same cell line, different lipidoids with different chemical structures could be internalized through very distinct pathways. Next, the genome-editing efficiencies of (−30)GFP-Cre/LNPs were determined by flow cytometry after 24 h of incubation (with 8 h of (−30)GFP-Cre/LNPs complex exposure). Three different concentrations of protein/lipidoid complexes (25 nM/1.7 μg mL^−1, 50 nM/3.4 μg mL^−1, and 100 nM/6.6 μg mL^−1) were tested for each lipidoid nanoparticle. […] For example, the DsRed^+ cells were recorded as 10.5%/24.9%/88.9%, 13.5%/55.4%/88.8%, and 27.7%/47.8%/94.7% for (−30)GFP-Cre loaded 75-OCholB, 76-OCholB and 77-OCholB, respectively, at the protein concentration of 25, 50 and 100 nM. […] Then, the cytotoxicity profiles of (−30)GFP-Cre/LNPs, (−30)GFP-Cre/Lpf2k and naked (−30)GFP-Cre at different concentrations against HeLa-DsRed cells (8 h of exposure; (−30)GFP-Cre/LNPs=25 nM/1.7 μg mL^−1, 50 nM/3.4 μg mL^−1, and 100 nM/6.6 μg mL^−1) are measured using MTT assay after 24 h of incubation. […] For (−30)GFP-Cre/75-OCholB treated cells, the viabilities were determined to be 95.5%, 91.8% and 83.1%, at the protein concentration of 25, 50 and 100 nM, respectively; the numbers for (−30)GFP-Cre/76-OCholB and (−30)GFP-Cre/77-OCholB are 97.8%/98.2%/97.2 and 100.9%/96.6%/98.6%. […] Meanwhile, the morphology changes of HeLa-DsRed cell treated with different nanoparticle formulations were studied and the results are shown in FIG. 15E. […] Samples found in upper left quadrant are non-toxic and inefficient for delivery; samples in lower left quadrant are toxic and inefficient; samples in lower right quadrant are efficient but toxic; samples in upper right quadrant are non-toxic and efficient, which would be top candidates for further study. It is clear that Lpf2k (shown in dotted purple circle) at high concentration is relatively efficient for genome editing, while also toxic to the target cells. On the other hand, most of the (−30)GFP-Cre loaded OCholB LNPs are almost non-toxic when compared to (−30)GFP-Cre/Lpf2k, similar to naked (−30)GFP-Cre protein. 87-OCholB, 90-OCholB and 304-OCholB (shown in dotted dark blue circle) are less efficient for genome-editing; while high genome editing efficacy and excellent tolerability were achieved by using 75-OCholB, 76-OCholB and 77-OCholB (shown in dotted green circle).

HeLa cells [2] = assay: GFP mRNA delivery (GFP+ cells); conditions: LNP/mRNA=10/1; [mRNA]=0.86 μg mL^−1; 24 h exposure
Excerpt: Messenger RNA delivery has great potentials for cancer therapy, protein replacement therapy and neurological disorder treatments.^42 The intracellular delivery of mRNA using OCholB LNPs was studied using GFP mRNA and different cell lines (HeLa, B16F10, HEK-293, NIH/3T3 and Jurkat). The weight ratio of LNP/mRNA was optimized at first using HeLa cells. […] The weight ratio of LNP/mRNA=10/1 was then chose for the following mRNA delivery studies. […] Then the intracellular delivery efficiencies of all fully substituted OCholB LNPs were tested against HeLa cells, and Lpf2k and naked GFP mRNA were used as controls (LNP/mRNA=10/1; [mRNA]=0.86 μg mL^−1; 24 h exposure). […] As to the OCholB LNPs, 75-OCholB (62.0% of GFP^+ cells), 76-OCholB (79.8%), 77-OCholB (73.5%), 78-OCholB (67.1%), 80-OCholB (55.6%), 81-OCholB (51.6%) and 304-OCholB (52.1%) are all determined to be effective. Typical fluorescent images of mRNA/LNPs (mRNA/75-OCholB, mRNA/76-OCholB and mRNA/77-OCholB) treated HeLa cells are shown in FIG. 14C. Comparing to untreated HeLa cells, strong green fluorescent signals were recoded from nanoparticles incubated cells, which is consistent with the flow cytometry data as shown in FIG. 14D. Meanwhile, both 87-OCholB (6.1%) and 90-OCholB (2.5%) are found to be inefficient for GFP mRNA delivery into HeLa cells, which is consistent with the internalization studies using NR (FIG. 12C) and (−30)GFP-Cre protein (FIG. 12F) as the fluorescent reporters.

[3] = protein/lipidoid 25 nM/1.7 μg mL^−1
[4] = protein/lipidoid 50 nM/3.4 μg mL^−1
[5] = protein/lipidoid 100 nM/6.6 μg mL^−1

Row | SMILES | NR^+ cells (HeLa cells [1]) [%] | DsRed^+ cells (HeLa-DsRed cells; [3]) [%] | DsRed^+ cells (HeLa-DsRed cells; [4]) [%] | GFP^+ cells (HeLa cells [2]) [%] | DsRed^+ cells (HeLa-DsRed cells; [5]) | genome editing efficacy (DsRed^+ cells), overall (HeLa-DsRed cells; (−30)GFP-Cre 25, 50 and 100 nM)
1 | CC(C)CCCC(C)C1CCC2C3CC=C4CC(OC(=O)NCCSSCCOC(=O)CCN(CCC(=O)OCCSSCCNC(=O)OC5CCC6(C)C(=CCC7C6CCC6(C)C(C(C)CCCC(C)C)CCC76)C5)CCC5CCCN5C)CCC4(C)C3CCC12C (stereo not drawn) [Lipidoid 77-OCholB] | 90.3 | 27.7 | 47.8 | 73.5 |  | 
2 | CC(C)CCCC(C)C1CCC2C3CC=C4CC(OC(=O)NCCSSCCOC(=O)CCN(CCCN(C)C)CCC(=O)OCCSSCCNC(=O)OC5CCC6(C)C(=CCC7C6CCC6(C)C(C(C)CCCC(C)C)CCC76)C5)CCC4(C)C3CCC12C (stereo not drawn) [Lipidoid 80-OCholB] | 71.4 |  |  | 55.6 | out-performed Lpf2k | 
3 | CC(C)CCCC(C)C1CCC2C3CC=C4CC(OC(=O)NCCSSCCOC(=O)CCN(CCC(=O)OCCSSCCNC(=O)OC5CCC6(C)C(=CCC7C6CCC6(C)C(C(C)CCCC(C)C)CCC76)C5)CCN(C)C)CCC4(C)C3CCC12C (stereo not drawn) [Lipidoid 78-OCholB] | 92.3 |  |  | 67.1 | out-performed Lpf2k | 
4 | CCN(CC)CCCN(CCC(=O)OCCSSCCNC(=O)OC1CCC2(C)C(=CCC3C2CCC2(C)C(C(C)CCCC(C)C)CCC32)C1)CCC(=O)OCCSSCCNC(=O)OC1CCC2(C)C(=CCC3C2CCC2(C)C(C(C)CCCC(C)C)CCC32)C1 (stereo not drawn) [Lipidoid 81-OCholB] | 27.0 |  |  | 51.6 | out-performed Lpf2k | 
5 | CCN(CC)CCN(CCC(=O)OCCSSCCNC(=O)OC1CCC2(C)C(=CCC3C2CCC2(C)C(C(C)CCCC(C)C)CCC32)C1)CCC(=O)OCCSSCCNC(=O)OC1CCC2(C)C(=CCC3C2CCC2(C)C(C(C)CCCC(C)C)CCC32)C1 (stereo not drawn) [Lipidoid 75-OCholB] | 85.2 | 10.5 | 24.9 | 62.0 |  | 
6 | CC(C)CCCC(C)C1CCC2C3CC=C4CC(OC(=O)NCCSSCCOC(=O)CCN(C)CCN(CCN(C)CCC(=O)OCCSSCCNC(=O)OC5CCC6(C)C(=CCC7C6CCC6(C)C(C(C)CCCC(C)C)CCC76)C5)CCN(C)CCC(=O)OCCSSCCNC(=O)OC5CCC6(C)C(=CCC7C6CCC6(C)C(C(C)CCCC(C)C)CCC76)C5)CCC4(C)C3CCC12C (stereo not drawn) [Lipidoid 304-OCholB] | 22.8 |  |  | 52.1 |  | less efficient at delivery
7 | CC(C)CCCC(C)C1CCC2C3CC=C4CC(OC(=O)NCCSSCCOC(=O)CCN(CCC(=O)OCCSSCCNC(=O)OC5CCC6(C)C(=CCC7C6CCC6(C)C(C(C)CCCC(C)C)CCC76)C5)CCN5CCCC5)CCC4(C)C3CCC12C (stereo not drawn) [Lipidoid 76-OCholB] | 65.0 | 13.5 | 55.4 | 79.8 |  | 
